Columns and labels:
[1] = biological target: T1, Prostaglandin E2 receptor EP3 subtype (Homo sapiens, UniProt P43115); test: Binding affinity was determined against prostanoid EP3 receptor
T1 sequence (P43115 whole entry): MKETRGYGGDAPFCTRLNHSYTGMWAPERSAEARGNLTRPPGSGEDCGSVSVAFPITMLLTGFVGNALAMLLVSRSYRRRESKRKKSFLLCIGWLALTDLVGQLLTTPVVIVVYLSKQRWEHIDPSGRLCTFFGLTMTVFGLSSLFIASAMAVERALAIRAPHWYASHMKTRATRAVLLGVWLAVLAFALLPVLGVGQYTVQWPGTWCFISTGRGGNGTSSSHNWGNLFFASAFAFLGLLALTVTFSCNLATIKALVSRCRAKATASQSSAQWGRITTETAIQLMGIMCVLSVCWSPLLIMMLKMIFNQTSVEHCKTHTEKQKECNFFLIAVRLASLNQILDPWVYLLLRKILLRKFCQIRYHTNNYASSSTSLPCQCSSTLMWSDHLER

[2] = biological target: T2, Prostaglandin E2 receptor EP1 subtype (Homo sapiens, UniProt P34995); test: Binding affinity was determined against prostanoid EP1 receptor
T2 sequence (P34995 whole entry): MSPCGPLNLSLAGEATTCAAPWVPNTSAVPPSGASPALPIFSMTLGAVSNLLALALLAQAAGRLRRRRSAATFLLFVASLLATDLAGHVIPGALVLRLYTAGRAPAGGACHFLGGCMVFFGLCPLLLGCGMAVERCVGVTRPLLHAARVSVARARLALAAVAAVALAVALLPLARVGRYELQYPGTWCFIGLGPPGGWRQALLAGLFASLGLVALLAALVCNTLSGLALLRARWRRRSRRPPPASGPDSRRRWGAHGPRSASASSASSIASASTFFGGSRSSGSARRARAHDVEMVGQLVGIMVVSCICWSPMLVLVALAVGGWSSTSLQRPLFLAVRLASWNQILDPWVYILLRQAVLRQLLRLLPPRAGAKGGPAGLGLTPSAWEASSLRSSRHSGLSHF

[3] = biological target: T3, Prostaglandin E2 receptor EP4 subtype (Homo sapiens, UniProt P35408); test: Agonist activity against recombinant prostanoid EP4 receptor stably transfected in CHO cells; assay type: functional, cell-based
[4] = biological target: T3, Prostaglandin E2 receptor EP4 subtype; test: Binding affinity was determined against prostanoid EP4 receptor
[5] = biological target: Prostaglandin E2 receptor EP2 subtype (Homo sapiens, UniProt P43116); test: Binding affinity was determined against prostanoid EP2 receptor
Chain of Prostaglandin E2 receptor EP2 subtype (P43116 whole entry): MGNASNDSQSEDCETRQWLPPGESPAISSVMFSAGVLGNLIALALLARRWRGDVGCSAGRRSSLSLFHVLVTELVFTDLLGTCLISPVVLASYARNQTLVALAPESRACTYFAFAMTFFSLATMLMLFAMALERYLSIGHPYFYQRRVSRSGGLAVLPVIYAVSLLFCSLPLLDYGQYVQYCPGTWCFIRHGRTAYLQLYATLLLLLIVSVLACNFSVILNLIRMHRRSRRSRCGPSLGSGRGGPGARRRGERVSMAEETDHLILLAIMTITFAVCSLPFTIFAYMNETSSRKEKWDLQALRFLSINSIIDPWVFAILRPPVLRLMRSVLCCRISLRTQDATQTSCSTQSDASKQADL

T3 sequence (P35408 whole entry): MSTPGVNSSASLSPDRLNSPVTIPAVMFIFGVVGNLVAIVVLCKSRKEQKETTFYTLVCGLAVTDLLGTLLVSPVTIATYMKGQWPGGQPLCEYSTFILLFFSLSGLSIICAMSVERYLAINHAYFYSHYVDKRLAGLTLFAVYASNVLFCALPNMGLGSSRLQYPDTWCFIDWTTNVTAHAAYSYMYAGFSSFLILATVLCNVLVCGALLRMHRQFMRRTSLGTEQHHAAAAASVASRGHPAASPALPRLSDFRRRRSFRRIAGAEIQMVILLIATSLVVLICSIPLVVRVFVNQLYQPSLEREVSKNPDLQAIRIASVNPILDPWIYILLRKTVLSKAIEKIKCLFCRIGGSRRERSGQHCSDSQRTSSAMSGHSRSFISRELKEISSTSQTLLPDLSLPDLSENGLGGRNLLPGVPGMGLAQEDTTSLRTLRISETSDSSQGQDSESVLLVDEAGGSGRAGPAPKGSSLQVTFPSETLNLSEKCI

Compound | Ki [1] | Ki [2] | EC50 [3] | Ki [4] | Ki [5]
O=C(O)CCCCCCN1C(=O)CC[C@@H]1/C=C/C(O)Cc1cccc(C(F)(F)F)c1 (some centres not stated) | 12 µM | > 100 µM | 0.017 µM |  | 
O=C(O)CCCCCCN1C(=O)CC[C@@H]1CC[C@@H](O)c1cccc(C(F)(F)F)c1 | 12 µM |  | 0.13 µM | 0.0074 µM | 
O=C(O)CCCCCCN1C(=O)CC[C@@H]1/C=C/C(O)c1cccc(-c2ccccc2)c1 (some centres not stated) | > 100 µM |  | 0.36 µM | 0.36 µM | 32 µM
O=C(O)CCCCCCN1C(=O)CC[C@@H]1/C=C/C(O)c1cccc(C(F)(F)F)c1 (some centres not stated) | 131 µM |  | 0.5 µM | 0.14 µM | 68 µM
O=C(O)CCCCCCN1C(=O)CC[C@@H]1/C=C/[C@@H](O)CC1CCCCC1 | 16 µM |  | 0.12 µM | 0.0075 µM | 71 µM
Cc1cc(Cl)ccc1-c1cccc(C(O)/C=C/[C@H]2CCC(=O)N2CCCCCCC(=O)O)c1 (some centres not stated) | 38 µM |  | 0.0008 µM | 0.0031 µM | > 100 µM
Cc1cc(O)ccc1-c1cccc([C@H](O)CC[C@H]2CCC(=O)N2CCCCCCC(=O)O)c1 | > 100 µM |  | 0.015 µM | 0.0082 µM | 26 µM
CCCCC[C@H](O)/C=C/[C@H]1CCC(=O)N1CCCCCCC(=O)O | 3 µM | > 100 µM | 0.056 µM | 0.0045 µM | 4.5 µM
O=C(O)CCCCCCN1C(=O)CC[C@@H]1/C=C/C(O)c1ccccc1-c1ccccc1 (some centres not stated) |  |  | 42 µM |  | 
O=C(O)CCCCCCN1C(=O)CC[C@@H]1/C=C/C(O)c1ccc(C(F)(F)F)o1 (some centres not stated) | 4.9 µM |  | 0.04 µM | 0.01 µM | 58 µM
O=C(O)CCCCCCN1C(=O)CC[C@@H]1/C=C/C(O)c1ccccc1 (some centres not stated) |  |  | > 10 µM | 2.3 µM | 41 µM
O=C(O)CCCCCCN1C(=O)CC[C@@H]1CCC(=O)c1cccc(C(F)(F)F)c1 |  |  | > 10 µM |  | 
O=C(O)CCCCCCN1C(=O)CC[C@@H]1/C=C/C(O)c1cccc(-c2cccc(Cl)c2)c1 (some centres not stated) | > 100 µM |  | 0.17 µM | 0.42 µM | 85 µM
O=C(O)CCCCCCN1C(=O)CC[C@@H]1/C=C/C(O)C1(c2ccccc2)CC1 (some centres not stated) | 20 µM | 28 µM | 0.18 µM |  | 164 µM
CCCCC[C@H](O)/C=C/[C@@H]1CCC(=O)N1CCCCCCC(=O)O |  |  | > 100 µM |  | 
O=C(O)CCCCCCN1C(=O)CC[C@@H]1CC[C@@H](O)Cc1cccc(C(F)(F)F)c1 | 38 µM |  | 0.46 µM | 0.016 µM | 22 µM
O=C(O)CCCCCCN1C(=O)CC[C@@H]1/C=C/C(O)c1cccc(-c2ccccc2Cl)c1 (some centres not stated) | > 100 µM |  | 0.04 µM | 0.0062 µM | 42 µM
O=C(O)CCCCCCN1C(=O)CC[C@@H]1/C=C/C(O)c1cccc(Oc2ccccc2)c1 (some centres not stated) | > 100 µM | 50 µM | 0.085 µM | 0.032 µM | 
CCCCC[C@@H](O)/C=C/[C@@H]1CCC(=O)N1CCCCCCC(=O)O |  |  | 200 µM |  | 
O=C(O)CCCCCCN1C(=O)CC[C@@H]1/C=C/C(O)c1cccc(-c2ccc(Cl)cc2)c1 (some centres not stated) | > 100 µM |  | 0.05 µM | 0.39 µM | 4.2 µM
O=C(O)CCCCCCN1C(=O)CC[C@@H]1/C=C/[C@@H](O)CC1CCC1 | 56 µM |  | 0.2 µM | 0.0042 µM | > 100 µM
O=C(O)CCCCCCN1C(=O)CC[C@@H]1/C=C/[C@@H](O)Cc1cccc(C(F)(F)F)c1 | 13 µM | > 100 µM | 0.012 µM | 0.0016 µM | 29 µM
Cc1cc(O)ccc1-c1cccc(C(O)/C=C/[C@H]2CCC(=O)N2CCCCCCC(=O)O)c1 (some centres not stated) | > 100 µM |  | 0.013 µM | 0.0049 µM | > 100 µM
O=C(O)CCCCCCN1C(=O)CC[C@@H]1/C=C/C(O)Cc1ccccc1 (some centres not stated) | 100 µM |  |  |  | 31 µM
CCCCC[C@@H](O)/C=C/[C@H]1CCC(=O)N1CCCCCCC(=O)O |  |  | 6.1 µM |  | 
